The values that follow come from patent US9982005B2, “Macrolides and methods of their preparation and use” (President and Fellows of Harvard College, priority 2013, dated 2018).

In brackets after ≈: the same amount, converted by molar mass.

What all share (assay type): cell-based
One experiment concerns EC882 E. coli imp. Kind of experiment: broth dilution MIC, E. coli EC882. As to conditions: Escherichia coli. From the text: (§1) We have collected MIC data for a total of 50 novel macrolides that this platform has produced against over 21 unique strains of B. subtilis, E. coli, S. aureus, S. pneumoniae, and H. influenzae, including several multidrug-resistant strains, with a special focus on macrolide resistant mechanisms (vide supra). Azithromycin was included as a control macrolide. CLSI standard procedures for broth dilution MIC determination were used. […] These genotypes can be constitutive or inducible. The finding that C4-epi (unnatural) isomers of the “azaketolide” macrolide class have enhanced activities relative to C4 natural isomers is very exciting.
(Dilution methods test growth across graded concentrations, often in twofold steps.)

A further experiment relates to BS1725 B. subtilis ermC. Nature of the experiment: broth dilution MIC, B. subtilis BS1725. The conditions noted are these: Bacillus subtilis.
Excerpt: as §1

Another experiment has as its system EC107 E. coli ATCC25922. Kind of experiment: broth dilution MIC, E. coli EC107. As to conditions: Escherichia coli, read-out: MIC.
Excerpt: as §1

Experiment [1] has as its system BS1723 B. subtilis BS168 WT wild type. Kind of experiment: broth dilution MIC, B. subtilis BS1723. As to conditions: Bacillus subtilis, BS1723 B. subtilis BS168 WT wild type; read-out: MIC.
Excerpt: as §1

The subject of experiment [2] is SA101 S. aureus ATCC29213. Kind of experiment: broth dilution MIC, S. aureus SA101. The conditions noted are these: Staphylococcus aureus, ATCC29213, SA101 S. aureus ATCC29213; read-out: MIC.
Excerpt: as §1

For the next experiment, the system named is EC878 E. coli tolC. Nature of the experiment: broth dilution MIC, E. coli EC878. As to conditions: Escherichia coli.
Excerpt: as §1

As a reminder, the MIC is the lowest concentration found to suppress growth. For `CC[C@H]1OC(=O)[C@](C)(F)C(=O)C[C@@H](O[C@@H]2OC(C)CC(N(C)C)C2O)[C@](C)(OC)C[C@@H](C)CN[C@H](C)[C@H]2N(CCCCn3cc(-c4cccc(N)c4)nn3)C(=O)O[C@]12C` (stereo partly drawn) [FSM-10661], the minimal inhibitory concentration (MIC) in the experiment with EC882 E. coli imp was 2 µg/mL (≈ 2.4 µM); against BS1725 B. subtilis ermC (BS1725 B. subtilis ermC (+ery)) it was > 32 µg/mL; in the experiment with BS1725 B. subtilis ermC (BS1725 B. subtilis ermC (−ery)) it was > 32 µg/mL; with EC107 E. coli ATCC25922, > 32 µg/mL; in experiment [1], > 32 µg/mL; in experiment [2] it was > 32 µg/mL. Moreover, the lowest concentration to inhibit growth against EC878 E. coli tolC (MIC) was 16 µg/mL (≈ 19.2 µM).

On to `CC[C@H]1OC(=O)[C@H](C)C(=O)C[C@@H](O[C@@H]2OC(C)CC(N(C)C)C2O)[C@](C)(OC)C[C@@H](C)CN[C@H](C)[C@H]2N(CCCCn3cc(-c4cccnn4)nn3)C(=O)O[C@]12C` (stereo partly drawn) [FSM-10785], for which the MIC in the experiment on EC882 E. coli imp was 1 µg/mL (≈ 1.25 µM); against BS1725 B. subtilis ermC (BS1725 B. subtilis ermC (+ery)), > 32 µg/mL; against BS1725 B. subtilis ermC (BS1725 B. subtilis ermC (−ery)), > 32 µg/mL; in the experiment with EC107 E. coli ATCC25922, > 32 µg/mL; in experiment [1] it was > 32 µg/mL; in experiment [2], > 32 µg/mL. The molecule further displayed an MIC against EC878 E. coli tolC of 2 µg/mL (≈ 2.5 µM).

In the case of `CC[C@H]1OC(=O)[C@H](C)C(=O)[C@H](C)[C@@H](O[C@@H]2OC(C)CC(N(C)C)C2O)[C@](C)(OC)C[C@@H](C)CN(C(C)=O)[C@H](C)[C@H]2N(CCCCn3cc(-c4ccccn4)nn3)C(=O)O[C@]12C` (stereo partly drawn) [FSM-20766], the MIC against EC882 E. coli imp is 1 µg/mL (≈ 1.17 µM); in the experiment with BS1725 B. subtilis ermC (BS1725 B. subtilis ermC (+ery)), > 32 µg/mL; with EC107 E. coli ATCC25922, > 32 µg/mL; in experiment [1], 32 µg/mL (≈ 37.4 µM); in experiment [2] it was 16 µg/mL (≈ 18.7 µM); in the experiment on EC878 E. coli tolC it was 4 µg/mL (≈ 4.67 µM).

Consider `CC[C@H]1OC(=O)[C@H](C)C(=O)C[C@@H](O[C@@H]2OC(C)CC(N(C)C)C2O)[C@](C)(OC)C[C@@H](C)CN(C(C)=O)[C@H](C)[C@H]2N(CCCCn3cc(-c4nc5ccccc5s4)nn3)C(=O)O[C@]12C` (stereo partly drawn) [FSM-10791], for which the MIC in the experiment on EC882 E. coli imp was 0.5 µg/mL (≈ 0.557 µM); with BS1725 B. subtilis ermC (BS1725 B. subtilis ermC (+ery)), > 32 µg/mL; with BS1725 B. subtilis ermC (BS1725 B. subtilis ermC (−ery)), > 32 µg/mL; in the experiment with EC107 E. coli ATCC25922, > 32 µg/mL; in experiment [1], > 32 µg/mL; in experiment [2], > 32 µg/mL. The molecule also had an MIC in the experiment on EC878 E. coli tolC of 2 µg/mL (≈ 2.23 µM).

Turning to `CC[C@H]1OC(=O)[C@H](C)C(=O)C[C@@H](O[C@@H]2OC(C)CC(N(C)C)C2O)[C@@](C)(OC)C[C@@H](C)CN(C(C)=O)[C@H](C)[C@H]2N(CCCCn3cc(-c4cccnn4)nn3)C(=O)O[C@]12C` (stereo partly drawn) [FSM-30513], the MIC (in the experiment on EC882 E. coli imp; against BS1725 B. subtilis ermC (BS1725 B. subtilis ermC (+ery)); in the experiment on BS1725 B. subtilis ermC (BS1725 B. subtilis ermC (−ery)); in the experiment on EC107 E. coli ATCC25922; in experiment [1]; in experiment [2]) was > 32 µg/mL throughout. For the same molecule, the MIC against EC878 E. coli tolC was > 32 µg/mL.

On to `CC[C@H]1OC(=O)[C@H](C)C(=O)C[C@@H](O[C@@H]2OC(C)CC(N(C)C)C2O)[C@@](C)(OC)C[C@@H](C)CN[C@H](C)[C@H]2N(CCCCn3cc(-c4cccnn4)nn3)C(=O)O[C@]12C` (stereo partly drawn) [FSM-30506], for which the MIC (with EC882 E. coli imp; in the experiment on BS1725 B. subtilis ermC (BS1725 B. subtilis ermC (+ery)); against BS1725 B. subtilis ermC (BS1725 B. subtilis ermC (−ery)); with EC107 E. coli ATCC25922; in experiment [1]; in experiment [2]) was > 32 µg/mL throughout. Moreover, the minimum inhibitory concentration (MIC) in the experiment with EC878 E. coli tolC is > 32 µg/mL.

As for `CC[C@H]1OC(=O)[C@H](C)C(=O)C[C@@H](O[C@@H]2OC(C)CC(N(C)C)C2O)[C@@](C)(OC)C[C@@H](C)CN(C(C)=O)[C@H](C)[C@H]2N(CCCCn3cc(-c4nccs4)nn3)C(=O)O[C@]12C` (stereo partly drawn) [FSM-30503], the MIC (in the experiment on EC882 E. coli imp; with BS1725 B. subtilis ermC (BS1725 B. subtilis ermC (+ery)); with BS1725 B. subtilis ermC (BS1725 B. subtilis ermC (−ery)); with EC107 E. coli ATCC25922; in experiment [1]; in experiment [2]) was > 32 µg/mL each time. Also, the MIC against EC878 E. coli tolC is > 32 µg/mL.
